We go through eleven compounds from paper PMC6127842, “Identification of flavonolignans from Silybum marianum seeds as allosteric protein tyrosine phosphatase 1B inhibitors” (Journal of Enzyme Inhibition and Medicinal Chemistry, 2018).

The target of assay [1] is T1, SHP-2 (human recombinant) (Homo sapiens, UniProt Q06124).
T1 construct: purchased Sigma-Aldrich Co., LLC; (St Louis, MO)
T1 sequence (Q06124 1-593): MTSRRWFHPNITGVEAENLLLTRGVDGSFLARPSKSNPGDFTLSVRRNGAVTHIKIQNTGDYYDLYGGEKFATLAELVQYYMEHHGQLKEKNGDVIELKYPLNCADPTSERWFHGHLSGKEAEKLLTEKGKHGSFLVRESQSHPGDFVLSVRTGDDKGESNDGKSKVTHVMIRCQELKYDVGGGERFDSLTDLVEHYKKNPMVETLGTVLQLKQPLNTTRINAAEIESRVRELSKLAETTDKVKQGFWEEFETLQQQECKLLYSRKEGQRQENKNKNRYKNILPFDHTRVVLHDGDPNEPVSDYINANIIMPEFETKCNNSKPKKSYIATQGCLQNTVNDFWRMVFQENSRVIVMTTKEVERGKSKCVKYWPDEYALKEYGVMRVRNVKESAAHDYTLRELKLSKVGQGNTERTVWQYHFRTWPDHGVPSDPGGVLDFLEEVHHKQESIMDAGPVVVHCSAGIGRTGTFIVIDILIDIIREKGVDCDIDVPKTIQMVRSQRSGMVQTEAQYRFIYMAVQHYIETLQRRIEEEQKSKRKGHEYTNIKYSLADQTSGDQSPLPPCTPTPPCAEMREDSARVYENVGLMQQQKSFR
Put plainly: SHP-2 inhibitory activity assay with p-NPP. It counts as biochemical. The note with it: mean ± SD, three experiments, read-out: Inhibition rate (%) SHP-2.

Assay [2] has as its target T2, SHP-1 (human recombinant) (Homo sapiens, UniProt P29350).
T2 construct: purchased Sigma-Aldrich Co., LLC; (St Louis, MO)
Put plainly: SHP-1 inhibitory activity assay with p-NPP. Type of assay: biochemical. The note with it: mean ± SD, three experiments, read-out: Inhibition rate (%) SHP-1.

Assay [3] has as its target T3, Vaccinia H1-related phosphatase (VHR, human recombinant) (Homo sapiens, UniProt P51452).
T3 construct: purchased Enzo Life Sciences, Inc. (Lausen, Switzerland)
Put plainly: biochemical. The conditions noted are these: read-out: Inhibition rate (%) VHR.

Assay [4] deals with T4, PTP1B (human recombinant) (Homo sapiens, UniProt P18031).
T4 construct: purchased Enzo Life Sciences, Inc. (Lausen, Switzerland)
T4 sequence (P18031 1-435): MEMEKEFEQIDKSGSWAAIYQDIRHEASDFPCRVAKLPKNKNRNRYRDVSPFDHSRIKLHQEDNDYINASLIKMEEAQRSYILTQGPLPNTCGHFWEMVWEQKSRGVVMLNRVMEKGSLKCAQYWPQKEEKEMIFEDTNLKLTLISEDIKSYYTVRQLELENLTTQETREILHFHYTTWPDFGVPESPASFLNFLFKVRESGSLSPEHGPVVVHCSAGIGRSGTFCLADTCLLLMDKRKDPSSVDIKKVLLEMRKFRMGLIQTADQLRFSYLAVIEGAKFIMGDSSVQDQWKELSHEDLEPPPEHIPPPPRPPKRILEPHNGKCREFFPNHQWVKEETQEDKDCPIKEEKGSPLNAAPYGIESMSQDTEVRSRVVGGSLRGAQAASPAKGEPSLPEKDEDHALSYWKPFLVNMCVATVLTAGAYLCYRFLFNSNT
The assay is described as follows: PTP1B inhibitory activity assay with p-NPP as substrate. Type of assay: biochemical. The conditions noted are these: for IC50: p-NPP 4 mM, pH 6.0, 37 °C, 30 min, means ± SD, n = 3, NA = no activity >50 μM, read-out: IC50 against PTP1B. How it is done: (§1) PTP1B inhibitory activity was measured using p-NPP as the substrate. A mixture consisting of p-NPP and PTP1B in a buffer containing 0.06 M citrate (pH 6.0), 0.1 M NaCl, 1 mM EDTA, and 1 mM DTT with or without a tested compound solution (prepared in the above buffer solution containing 30% dimethyl sulfoxide), was incubated at 37 °C for 30 min. The substrate was used at a concentration of 4 mM. The reaction was terminated by adding 20 µL of 10 M NaOH. The reaction mixture was blended by a microplate mixer for 5 min and the amount of produced p-nitrophenol was tested by measuring the absorbance at 405 nm. The blank was measured in the same way except adding a buffer solution instead of the enzyme.

Assay [5] concerns the target T4, PTP1B (human recombinant). Put plainly: Kinetic analysis of PTP1B inhibition (Lineweaver–Burk, secondary plot). Type of assay: biochemical. The note with it: for Inhibition type: Lineweaver–Burk, p-NPP 4, 8, 16 mM; for Ki: secondary plot of Lineweaver–Burk slopes. How it is done: as §1, with “enzyme. […] All compounds used for bioassay were confirmed the purity >98% by HPLC-PDA and ^1H NMR spectroscopic analyses.” for “enzyme.”
To elucidate the inhibition mode, the inhibition kinetics of compounds 1–5 were analyzed by the Lineweaver–Burk method with various substrate concentrations of p-NPP (4, 8, 16 mM). The initial reaction velocities were measured with and without the inhibitor.
(A) Lineweaver–Burk plots of compounds 1–5. The final concentration of compounds 1–5 was as follows: 1; 0, 1.0, 2.0, and 3.0 μM, 2; 0, 4.0, 6.0, and 8.0 μM, 3; 0, 1.3, 2.5, and 3.0 μM, 4; 0, 1.0, 2.0, and 3.0 μM, and 5; 0, 4.0, 6.0, and 8.0 μM. (B) The second plots of A.

The target of assay [6] is T5, T-cell protein tyrosine phosphatase (TCPTP, human recombinant) (Homo sapiens, UniProt P17706).
T5 construct: purchased Enzo Life Sciences, Inc. (Lausen, Switzerland)
T5 sequence (P17706 1-415): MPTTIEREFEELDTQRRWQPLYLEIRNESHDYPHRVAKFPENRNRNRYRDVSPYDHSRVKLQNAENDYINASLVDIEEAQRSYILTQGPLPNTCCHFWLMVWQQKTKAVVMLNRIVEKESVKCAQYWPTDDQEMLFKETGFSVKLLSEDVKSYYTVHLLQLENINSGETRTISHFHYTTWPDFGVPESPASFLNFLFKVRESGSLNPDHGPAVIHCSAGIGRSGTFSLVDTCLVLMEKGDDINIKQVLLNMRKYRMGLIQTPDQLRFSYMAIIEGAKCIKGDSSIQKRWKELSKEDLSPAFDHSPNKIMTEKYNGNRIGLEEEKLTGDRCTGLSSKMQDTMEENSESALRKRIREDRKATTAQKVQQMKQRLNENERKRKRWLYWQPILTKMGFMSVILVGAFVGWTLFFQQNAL
The assay is described as follows: TCPTP inhibitory activity assay with p-NPP. It counts as biochemical. The conditions noted are these: mean ± SD, three experiments, read-out: Inhibition rate (%) TCPTP.

The mark [7] stands for this setting: mean ± SD, three experiments, read-out: Inhibition rate (%) PTP1B.

T2 sequence (P29350 whole entry): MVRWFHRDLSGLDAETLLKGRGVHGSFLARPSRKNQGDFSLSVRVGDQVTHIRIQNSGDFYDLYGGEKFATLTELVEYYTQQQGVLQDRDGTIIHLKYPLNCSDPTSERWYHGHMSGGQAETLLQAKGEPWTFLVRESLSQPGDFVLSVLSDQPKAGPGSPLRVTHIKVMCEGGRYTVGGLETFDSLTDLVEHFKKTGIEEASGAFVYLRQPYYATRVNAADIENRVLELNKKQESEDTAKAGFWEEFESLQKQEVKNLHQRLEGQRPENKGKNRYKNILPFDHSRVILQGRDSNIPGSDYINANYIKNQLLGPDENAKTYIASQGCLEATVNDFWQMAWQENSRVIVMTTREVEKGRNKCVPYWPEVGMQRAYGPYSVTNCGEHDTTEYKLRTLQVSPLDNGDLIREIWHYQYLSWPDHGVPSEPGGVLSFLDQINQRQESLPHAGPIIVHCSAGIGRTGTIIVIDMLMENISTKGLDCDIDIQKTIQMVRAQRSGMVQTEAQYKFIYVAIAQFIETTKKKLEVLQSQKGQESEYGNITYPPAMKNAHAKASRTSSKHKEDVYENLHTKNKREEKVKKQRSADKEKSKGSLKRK
T3 sequence (P51452 whole entry): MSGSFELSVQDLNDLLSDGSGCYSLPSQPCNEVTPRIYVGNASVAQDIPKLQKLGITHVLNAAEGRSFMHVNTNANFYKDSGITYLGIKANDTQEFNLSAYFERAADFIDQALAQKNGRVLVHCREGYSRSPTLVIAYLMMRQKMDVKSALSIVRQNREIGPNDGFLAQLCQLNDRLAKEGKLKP

With `COc1cc([C@H]2Oc3cc([C@H]4Oc5cc(O)cc(O)c5C(=O)[C@@H]4O)ccc3O[C@@H]2CO)ccc1O` [Compound 1, Silybin A], the inhibition at 4 µM turned out to be 32.7 ± 1.8% in assay [1]; 33.4 ± 0.4% in assay [2]; 60.6 ± 2.2% in assay [3]; 90.3 ± 0.9% in assay [4] (setting [7]); 15.7 ± 1.9% in assay [6]. Besides, the IC50 in assay [4] was 1.54 ± 0.22 µM. Moreover, the Inhibition type result in assay [5] is reported as “Non-competitive”. For the same compound, in assay [5], the Ki was 1.25 µM.
In the case of `COc1cc([C@@H]2Oc3cc([C@H]4Oc5cc(O)cc(O)c5C(=O)[C@@H]4O)ccc3O[C@H]2CO)ccc1O` [Compound 2, Silybin B], the inhibition at 12 µM in assay [1] (12 μM) is 37.5 ± 2.2%; in assay [2] (12 μM), 34.4 ± 1.9%; in assay [3], 65.6 ± 4.2%; in assay [4] (12 μM, mean ± SD, three experiments, read-out: Inhibition rate (%) PTP1B), 89 ± 2.1%; in assay [6] (12 μM), 32.1 ± 2.3%. Also, the IC50 in assay [4] was determined as 5.65 ± 0.2 µM. Further, the Inhibition type entry in assay [5] was “Non-competitive”. In addition, in assay [5], the Ki was determined as 4.05 µM.
As to `COc1cc([C@H]2Oc3ccc([C@H]4Oc5cc(O)cc(O)c5C(=O)[C@@H]4O)cc3O[C@@H]2CO)ccc1O` [Compound 3, Isosilybin A], the inhibition at 6 µM in assay [1] (6.0 μM) is 49 ± 2.1%; in assay [2] (6.0 μM) it was 30.6 ± 1.8%; in assay [3] it was 59.2 ± 2.4%; in assay [4] (6.0 μM, mean ± SD, three experiments, read-out: Inhibition rate (%) PTP1B) it was 90.7 ± 1.1%; in assay [6] (6.0 μM) it was 27.5 ± 0.8%. Moreover, in assay [4], the IC50 amounted to 2.65 ± 0.13 µM. Further, in assay [5], the Inhibition type entry was “Non-competitive”. The Ki in assay [5] was 2.25 µM.
With `COc1cc([C@@H]2Oc3ccc([C@H]4Oc5cc(O)cc(O)c5C(=O)[C@@H]4O)cc3O[C@H]2CO)ccc1O` [Compound 4, Isosilybin B], the inhibition at 4 µM in assay [1] was 50.1 ± 1.5%; in assay [2] it was 22.9 ± 2.1%; in assay [3], 61.4 ± 3%; in assay [4] (setting [7]) it was 92.1 ± 1.7%; in assay [6], 16.4 ± 1.5%. Besides, the IC50 in assay [4] was 1.37 ± 0.22 µM. Besides, in assay [5], the Inhibition type entry is “Non-competitive”. The Ki in assay [5] stood at 1.03 µM.
On to `COc1cc([C@@H]2Oc3c(O)cc([C@H]4Oc5cc(O)cc(O)c5C(=O)[C@@H]4O)cc3[C@H]2CO)ccc1O` [Compound 5, Silychristin A], for which the inhibition at 20 µM in assay [1] (20 μM) is 48.6 ± 1.9%; in assay [2] (20 μM), 25.9 ± 1.4%; in assay [3], 67.5 ± 1.4%; in assay [4] (20 μM, mean ± SD, three experiments, read-out: Inhibition rate (%) PTP1B), 89.2 ± 2.6%; in assay [6] (20 μM) it was 32.2 ± 1.9%. The IC50 in assay [4] is 5.58 ± 0.33 µM. Further, in assay [5], the Inhibition type entry was “Non-competitive”. The Ki in assay [5] was 3.95 µM.
Turning to `COc1cc([C@H]2Oc3c(O)cc([C@H]4Oc5cc(O)cc(O)c5C(=O)[C@@H]4O)cc3[C@@H]2CO)ccc1O` [Compound 6, Silychristin B], the IC50 in assay [4] came out at 23.9 ± 2.25 µM.
In the case of `COc1cc([C@@H]2Oc3c(O)ccc([C@H]4Oc5cc(O)cc(O)c5C(=O)[C@@H]4O)c3[C@H]2CO)ccc1O` [Compound 7, Isosilychristin A], the IC50 in assay [4] was determined as 6.55 ± 0.09 µM.
On the same count and under the same terms, then `COc1cc([C@@H]2Oc3c(O)cc(-c4oc5cc(O)cc(O)c5c(=O)c4O)cc3[C@H]2CO)ccc1O` [Compound 8, Dehydrosilychristin A], with 7.18 ± 0.12 µM; and `COc1cc([C@@H]2[C@H]3CO[C@@]4(O)C(=O)[C@@H]2C=C([C@H]2Oc5cc(O)cc(O)c5C(=O)[C@@H]2O)[C@@H]34)ccc1O` [Compound 9, Silydianin], with more than 50 µM; and `COc1cc(C2C3C=C(c4oc5cc(O)cc(O)c5c(=O)c4O)C4C2COC4(O)C3=O)ccc1O` (stereo not shown) [Compound 10, Dehydrosilydianin], with more than 50 µM.
`COc1cc(C2C(C(=O)O)C=C(C3Oc4cc(O)cc(O)c4C(=O)C3O)C3C(=O)OCC32)ccc1O` (stereo not shown) [Compound 11, Silyamandin]: in assay [4], the IC50 came out at 17.4 ± 0.67 µM.
